Results from patent US20100022517A1, “OPHTHALMIC FORMULATION OF RHO KINASE INHIBITOR COMPOUND” (priority 2006, published 2010).
In brackets after ≈: the same amount, converted by molar mass. Read-outs that look alike come from different tables or passages of the source.

Key:
[1] = Impact of pH on solubility, buffered cosolvent system (plON pSOL Evolution); assay type: physicochemical; conditions: for solubility: buffered cosolvent system
Experimental: Solubility was determined within a target pH range of 4.0-9.0 using a buffered cosolvent system (plON pSOL Evolution).

[2] = Solubility of Compound A at target pH 7.3 in 0.85% NaCl vehicle with surfactant or chelating agent, filtered, UV analysis; assay type: physicochemical; conditions: for Concentration Compound A: 20 mM prepared
Excerpt: Concentrations of the surfactant used were at the maximum allowable concentration for excipients Generally Regarded As Safe (GRAS).

[3] = Accelerated stability of Compound A formulation at 60° C., HPLC with UV detection; assay type: physicochemical; conditions: increase in pH from 5.3 to 6.3 and 7.3, 0.9% saline, 0.1% EDTA, 0.01% benzalkonium chloride, 0.8% polysorbate 80
Excerpt: Compound A was formulated in a 0.9% saline solution containing 0.1% EDTA, 0.01% Benzalkonium Chloride and 0.8% Polysorbate 80 at three levels of pH; 5.3, 6.3 and 7.3.

[4] = Effect of formulation pH on ocular surface, aqueous humor and systemic bioavailability after topical ocular dosing; assay type: in vivo
Experimental: Dose Formulation and Administration. Compound A was formulated at 0.12% w/v (the equivalent millimolar concentration is 3 mM) in 10 mM phosphate, 0.8% polysorbate 80, 0.85% NaCl, 0.01% BAC, 0.1% EDTA at three different pH's, 5.3, 6.3 and 7.3, Compound A was administered as a 30 μl drop to both eyes of each animal within a dosing group and the influence of pH on ocular and systemic exposure was examined.
Study sampling. Plasma, aqueous humor, and ocular samples were obtained from 2 animals (4 eyes) per dosing group at times of 0.25, 0.5, 1, and 2 hours post dosing.
Aqueous humor is the fluid within the anterior chamber of the eye and has the closest correlation to the concentration at the site of action, the trabecular meshwork. Cmax indicates the peak concentration of drug found within aqueous humor. AUC indicates total concentration of the drug within the aqueous humor over time.
Plasma concentration analysis indicates systemic exposure. Systemic exposure is the exposure of the drug to the entire body. Cmax and AUC describe the peak concentration and total concentration of the drug over time, respectively, for Compound A in plasma.
40 μL of saline was applied to the eyes at 0.25 h, 0.5 h, 1 h, and 2 h after administration of Compound A, and the lavage fluids were collected as samples. Ocular surface relates to the surface of the cornea and conjunctiva. Ocular surface residence time is the average time Compound A resides on the ocular surface.

[5] = Ocular comfort composite behaviour score after ocular instillation; assay type: in vivo, rabbit
Experimental: Dose Formulation and Administration.
Formulation A: 10 mM phosphate, 1% polysorbate 80, 0.85% NaCl, 0.02% BAC, 0.2% EDTA pH 7.0.
Formulation B: 10 mM phosphate, 1% polysorbate 80, 2.36% Glycerol, 0.02% BAC, 0.2% EDTA pH 7.1.
Formulation C: 10 mM phosphate, 1% polysorbate 80, 2.36% Glycerol, 0.02% BAC, 0.2% EDTA, 0.5% hydroxypropyl methyl cellulose, pH 7.1.
Formulation D: 10 mM phosphate, 1% polysorbate 80, 2.36% Glycerol, 0.02% BAC, 0.2% EDTA, 1% 1,2 dimyristoyl-sn-glycero-3-phosphocholine, pH 7.1.
Pharmacodynamic Analysis. Formulations A-D were administered as two 30 μl drops to the right eye of each rabbit within a dosing group. The rabbits were evaluated for 15 minutes after ocular instillation and their changes in behavior were recorded. […] The higher the score, the more discomfort an animal is. A mean±SE was generated for each group.

[6] = […] w/v, 30 μl drop to both eyes, increasing pH 5.3, 6.3, 7.3

CCS(=O)(=O)Nc1cccc(CN2CCC[C@@H](Nc3ccc4[nH]ncc4c3)C2)c1 [Compound 1.123, (R)-N-(3-((3-(1H-indazol-5-ylamino)piperidin-1-yl)methyl)phenyl)ethanesulfonamide]
solubility ([1]; pH 5.6, read-out: maximum solubility): 5000 µg/mL (≈ 12.1 mM)
Avg. Sol ([1]; pH 5.6): 5001 µg/mL
Avg. Sol ([1]; pH 7.2): 948 µg/mL
Avg. Sol ([1]; pH 8.5): 282 µg/mL

OCCOc1cccc(CN2CC[C@@H](Nc3cccc4cnccc34)C2)c1 [Compound 2.039, (R)-2-(3-((3-(isoquinolin-5-ylamino)pyrrolidin-1-yl)methyl)phenoxy)ethanol]
solubility ([1]; pH 4-5.8, read-out: solubility): > 20000 µg/mL
Avg. Sol ([1]; pH 4.0): >20000 µg/mL
Avg. Sol ([1]; pH 5.8): >20000 µg/mL
Avg. Sol ([1]; pH 7.7): 2312 µg/mL
Concentration Compound A ([2]; EDTA 0.3%, pH of solution 7.39, 0.85% NaCl): 1380 µg/mL
Concentration Compound A ([2]; HCO-40 (hydrogenated castor oil) 0.5%, pH of solution 7.39, 0.85% NaCl): 2540 µg/mL
Concentration Compound A ([2]; Poloxamer 188 0.1%, pH of solution 7.30, 0.85% NaCl): 1490 µg/mL
Concentration Compound A ([2]; Poloxamer 407 0.16%, pH of solution 7.28, 0.85% NaCl): 6020 µg/mL
Concentration Compound A ([2]; Polysorbate 80 1%, pH of solution 7.49, 0.85% NaCl): 3850 µg/mL
solubility of Compound A among the surfactant formulations ([2]; formulations containing polysorbate 80 and poloxamer 407, target pH 7.3): highest solubility
stability (percent of Compound A remaining) [3]: decrease in stability
ocular surface concentration ([4]; 0.25 h, between pH 5.3 and 6.3): increased only slightly
ocular surface concentration ([4]; 0.25 h, from pH 6.3 to 7.3): no change
aqueous humor exposure (Cmax and AUC) [4, 6]: enhances the exposure within the aqueous humor
plasma concentration (Cmax and AUC), systemic exposure [4, 6]: no effect on the plasma concentration
ocular surface residence time ([4]; […] w/v, pH increased from 5.3, 6.3 to 7.3, over 2 hours): increase in residence time
ocular surface concentration ([4]; between 1 and 2 hours, pH 7.3): remained consistent
ocular comfort score ([5]; 0.16% w/v, two 30 μl drops, right eye, addition of 1% 1,2 dimyristoyl-sn-glycero-3-phosphocholine (Formulation D)): increased ocular discomfort
ocular comfort score ([5]; increasing concentrations 0.03%, 0.1%, 0.32% w/v in formulation A): increased ocular discomfort
ocular comfort score ([5]; lower concentrations 0.03 and 0.1% w/v in formulation A, versus ALPHAGAN, RESTASIS, pilocarpine, LUMIGAN): comparable to those of the approved glaucoma medications
